Assay results published in patent US20260191933A1, “PHARMACEUTICAL COMBINATIONS AND USES THEREOF” (The University of Melbourne, priority 2022, published 2026).

Assays:
[1] = test system: 12-week HFHS fed obese mice; test: I.C.V. fluorosamine in obese mice: glucose tolerance and hyperinsulinemic-euglycemic clamps; assay type: in vivo, C57BL/6J mice
Description: For hyperinsulinemic-euglycemic clamps, mice were anesthetised under isoflurane and the right jugular vein was catheterised for infusions, as described previously by Dodd et al., 2018. Catheters were attached to an implant button (BMSW25, RWD Life Sciences, Shenzhen, China). Implant buttons were capped allowing for group mousing of mice and catheters were kept patent by flushing daily with 40 μL saline containing 200 units/mL heparin. On the day of the experiment, food was removed at 7:00 A.M. After 3.5 h fasting, a primed (1 min, 1.25 uCi/min) continuous infusion (0.05 uCi/min) of [3-3H]glucose (NET331A001MC, PerkinElmer, MA) was administered to measure whole-body glucose turnover, as described previously by Dodd et al., 2018. […]
Metabolic measurements were undertaken in the Melbourne Mouse Metabolic Phenotyping Platform (The University of Melbourne, Australia). […] The areas under glucose excursion curves were determined and expressed as mmol/l×min. Fasted (12 h fast) plasma insulin or glucose levels were determined using a Rat/Mouse Insulin ELISA (EZRMI-13K, Merck Millipore, CA) or an Accu-Check glucometer respectively. The HOMA-IR was calculated using the equation [(glucose×insulin)/405]. Adiposity was measured using TD-NMR minispec (Bruker Optics Inc., Billerica, MA). […]

[2] = test system: 12-week obese AgRP-Cas9 mice; test: I.C.V. fluorosamine in obese AgRP-Cas9 mice given AAV-gScrambled or AAV-gIR; assay type: in vivo
Description: To disassemble the CSPG-ECM within the ARC, mice received bilaterally (unless stated otherwise) administration of 15 mU/side of active chABC (C3667, Sigma, St. Louis, […], dissolved in 1 M trehalose) or heat-inactivated chABC protein as a vehicle (chABC in 1 M trehalose was heat-inactivated at 85° C. for 45 mins, as described previously by Alonge et al., 2020) in a total volume of 150 nl/side. To pulse the CSPG-ECM within the ARC or RSG, mice received bilateral (unless stated otherwise) administration of biotinylated WFA (0.3 μg/side, in a volume of 150 nl). To disrupt IR in AgRP neurons, 12-week HFHS fed AgRP-Cas9 mice were stereotaxically injected with AAVs expressing U6-driven guide RNA's targeting the InsR gene or a scrambled sequence (5′ GTGTAGTTCGACCATTCGTG ′3 (SEQ ID NO: 14)) alongside a CAG driven mCherry FLEX switch. Unless otherwise stated injections were bilaterally into the ARC (coordinates, bregma: anterior-posterior, −1.70 mm; dorsal-ventral, −5.85 mm; lateral, +/−0.18 mm, 200 nl/side) or into the RSG (coordinates, bregma: anterior-posterior, −1.40 mm; dorsal-ventral, −1.80 mm; lateral, +/−0.50 mm, 200 nl/side). WFA-biotin was injected unilaterally into the cc (coordinates, bregma: anterior-posterior, −1.40 mm; dorsal-ventral, −5.80 mm; lateral, +/−0.20 mm, 200 nl/side)
To generate AAV-gScrambled (pAAV-U6>mScramble-[…] (SEQ ID NO: 14))-CAG>LL:rev(mCherry):rev(LL):WPRE) and AAV-gIR (pAAV[-U6>mInsr[gRNA-[…] (SEQ ID NO: 15)]-U6>mInsr[gRNA-[…] (SEQ ID NO: 16)]-CAG>LL:rev(mCherry):rev(LL):WPRE) viral vectors, sgRNAs were first designed using online CRISPR tools (http://crispr.mit.edu and http://chopchop.cbu.uib.no/). […] For AAV-gScrambled a pUp-U6>Scramble gRNA vector was generated using the Gibson assembly of a pDONR P4-P1R backbone and primers 5′ […] ′3 (SEQ ID NO: 17) and 5′ […] ′3 (SEQ ID NO: 18). For AAV-gIR a pUp-U6>mInsr[gRNA-[…] (SEQ ID NO: 15)]-U6>mInsr[gRNA-[…] (SEQ ID NO: 16)] gRNA vector was generated using the Gibson assembly of a AarI digested pUp-U6-gRNA-AarI-Stuffer-AarI backbone and primers 5′ […] ′3 (SEQ ID NO: 19) and 5′ […] ′3 (SEQ ID NO: 20). For both AAV-gScrambled and AAV-gIR the p-Up vectors were cloned alongside pDown-CAG and pTail-LL:rev(mCherry):rev(LL) to generate the final vectors by LR reaction using the Gateway method. AAV vectors were packaged into the AAV-DJ/8 steotype at a titre of >2 10^13 GC/ml). All vector cloning and AAV packaging was carried out by VectorBuilder (Chicago, IL).
Under isoflurane anaesthetic 12-week HFHS fed C57BL/6J or AgRP-Cas9 mice were implanted stereotaxically with guide cannulas into the right lateral ventricle (0.2 mm posterior, 1.0 mm lateral from bregma). Guide cannula was positioned 1.3 mm above the injection site (1 mm ventral to the surface of the skull). AgRP-Cas9 mice were treated with either AAV-gScrambled or AAV-gIR and underwent guide cannula placement 7 days post AAV administration. Mice were administered I.C.V. vehicle (ddH2O), fluorosamine (100 μg/animal/day or 250 μgl/animal/day) in a volume of 2 μl/animal and all compounds were delivered approximately 1 h before lights off (7 pm).

[3] = test system: 12-week HFHS fed obese mice; test: Example 21: 14-day treatment and off-treatment phase, weight rebound, body composition, metabolic rate, food intake; assay type: in vivo, C57BL/6J male mice
Description: To induce diet-induced obesity in adulthood, the mice were ad libitum access to water and high-fat-high-sugar (HFHS) diet (43% of total energy from fat, SF04-001, Speciality Feeds, Australia) starting at eight weeks of age for 12 weeks. Aged-matched chow-fed C57BL/6J male mice were ad libitum access to standard chow diet throughout full duration of the experiment.
Mice adiposity and lean mass were measured via the TD-NMR minispec (Bruker Optics Inc., USA) acquiring EchoMRI-900 Body Composition Analyser (EchoMRI LLC, USA). Interscapular brown adipose tissue, inguinal and epidermal white adipose tissues and the liver were weighed to determine tissue-specific adiposity.
At day 15, treatments were discontinued however all groups continued to receive ad libitum access to HFHS diet to assess the rebound following treatment cessation.

[4] = AAV-gScrambled AgRP-Cas9 mice, 100 μg/animal I.C.V. daily for 10 days

For `CC(=O)NC1C(OC(C)=O)OC(COC(C)=O)[C@@H](F)C1OC(C)=O` (stereo partly shown) [PZ6005, per-O-acetylated-4-F-N-acetylglucosamine], the “whole-body insulin sensitivity (GIR)” value ([1]; hyperinsulinemic-euglycemic clamps, weight matched obese mice, daily for 3 days I.C.V.) was “enhancement”, the glucose tolerance ([1]; obese mice, I.C.V. for 10 days) was “improved glucose tolerance” and the positive metabolic outcomes ([2]; AAV-IR AgRP-Cas9 mice) was “mitigated, at least in part”. For the same molecule, the adiposity [2, 4] was “reduced adiposity”, the body weight [2, 4] was “promoted weight loss” and the caloric intake [2, 4] was “attenuated caloric intake”. For the same molecule, the energy expenditure [2, 4] was “enhanced energy expenditure”, the glycaemic control [2, 4] was “improved glycaemic control” and the “baseline fat mass, without affecting lean mass” value ([3]; 14 days after terminating treatments, compared to vehicle and liraglutide alone) was “significant decrease”. For the same molecule, the “mean weight loss from baseline (day 0)” value ([3]; day 14, PZ6005 100 μg/animal I.C.V. every second day, liraglutide 200 μg/kg daily) was 15.08±1.45%, the liver mass ([3]; end of experiment, vs other littermates) was “lower liver mass” and the “day of return to baseline body weight” value ([3]; off-treatment phase) was 30.00 ± 1.72 days. The “oxygen consumption and whole-body energy expenditure” value ([3]; treatment phase, without effects on ambulatory activity) was “elevated”.
